Experimental findings from PMC8006777 (Journal of the American Chemical Society, 2020) are described below.

SMILES strings stand for the structures.

This experiment addresses MPP1 (Manganese Porphyrin-binding Protein 1). The experiment can be described thus: UV-vis absorption titration. More on the design: species or system synthetic construct.

Broadly, the Kd is the free concentration of one partner at which half of the binding sites on the other are occupied at equilibrium, for simple one-to-one binding. Low readings indicate tighter binding, high ones weaker binding.

In the case of `C1=CC2=[N+]3C1=Cc1ccc4[n]1[Mn-]31[n]3c(ccc3=C2c2ccccc2)=CC2=[N+]1C(=C4c1ccccc1)C=C2` (stereo not shown) [Mn(III)DPP], the Kd stood at 122 ± 19 nM.
